Experimental data reported in US6958331B1, “Bradykinin receptor antagonists” (Novartis AG, priority 1999, dated 2005).

Target: T1, human bradykinin B1 receptor (Homo sapiens, UniProt P46663)
T1 construct: expressed in transfected cells; membranes
T1 sequence (P46663 1-353): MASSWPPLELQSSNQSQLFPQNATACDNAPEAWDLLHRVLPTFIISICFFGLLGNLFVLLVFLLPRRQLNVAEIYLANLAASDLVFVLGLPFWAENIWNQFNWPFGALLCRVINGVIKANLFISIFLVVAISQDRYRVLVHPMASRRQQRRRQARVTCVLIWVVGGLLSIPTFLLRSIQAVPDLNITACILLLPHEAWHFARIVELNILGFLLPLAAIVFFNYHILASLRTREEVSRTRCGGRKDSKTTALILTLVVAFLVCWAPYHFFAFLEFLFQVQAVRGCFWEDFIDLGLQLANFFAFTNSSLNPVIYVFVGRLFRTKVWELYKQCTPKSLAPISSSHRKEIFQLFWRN
Test: Test I: Bradykinin Receptor Binding Assay ([3H]desArg10-kallidin displacement, HEK 293 membranes)
Conditions: statement in words
Procedure: This cDNA is sequenced and subcloned into pcDNA3 (Clontech) and used to generate a cell-line which expresses the human bradykinin B1 receptor.
Cells are grown in Mininum Essential Medium with Eade's Salts (GIBCO) supplemented with 2 mM L-glutamine, 100 units/ml penicillin, 100 μg/ml streptomycin, 1% nonessential amino acids and 10% myodone foetal calf serum (GIBCO) in a humidified atmosphere with 5% CO2 at 37° C.
One 175 cm^2 flask with approximately 50% confluent cells is transfected with approximately 30 μg/ml HB1-pcDNA3 DNA using the calcium phosphate precipitate method of transfection. The flask of transfected cells is split 1:3 on day 2 post transfecdon to prevent overgrowth. The following day the cells are split 1:5 and selection in 700 μg/ml G418 begins. The selective medium is changed every 3-4 days. When distinct G418 resistant colonies of transfected cells are seen, approximately 4 weeks after transfection, the cells are cloned by limiting dilution and assayed for binding of [^3H]desArg^10-kallidin. […]
Specific binding to the bradykinin B1 receptor is defined as the difference between that found in total bound tubes and that found in non-specific binding tubes. […] Mimoscintillant-40 Liquid scintillant is added to the filters and radioactivity bound is determined in a Canberra Packard Topcount scintillation counter. […]

## CC(C)N1CCN(C(=O)C2CCN(S(=O)(=O)c3ccc(NCC(c4ccccc4)c4ccccc4)c(C(=O)N4CCOCC4)c3)CC2)CC1 [Example 1, {2-(2,2-diphenyl-ethylamino)-5-[4-(4-Isopropyl-piperazine-1-carbonyl)-piperidine-1-sulfonyl]-pheny}-morpholin-4-yl-methanone]
  active at the human B1 bradykinin receptor: active
